Where two headings read alike, the source gives them in different places.
Assays:
SW48 cells = assay: IC50 in SW48 cells; type: cell-based, human
[1] = tested on: SW48 xenograft model (human colorectal cancer); assay: Efficacy study in SW48 xenograft model, tumor growth inhibition; type: in vivo; conditions: irinotecan 50 mg/kg once/week for two weeks
Procedure: Efficacy of Compound 3 was tested in an SW48 xenograft model (human colorectal cancer). Efficacies of the other compounds in Table 2 were also tested. All conjugates were dosed twice/week for two weeks.

Once/week MTD = conditions: in vivo
[2] = transthyretin, 55 KDa serum protein, background statement; cited from earlier work
[3] = Blood pressure study, tail cuff, 10 minute intravenous infusion; type: in vivo, Sprague Dawley rats; conditions: 400 nmol/kg infused over 10 minutes; significant drop = drop of at least 10%
Procedure: An external pumping device was used to deliver the target dose volume for each animal over a 10 minute dosing interval. Blood pressure was measured by tail cuff using the CODA Non-Invasive Blood Pressure system. Animals were placed in restrainers with the tail cuff on. The animals and the restrainers were then placed on a heating pad for approximately 5 minutes. Following the 5 minute heating pad acclimation an additional acclimation data collection took place prior to dose initiation for approximately 5 minutes. Blood pressure data began at dose initiation and was collected through at least 30 minutes postdose. […] Test articles were infused over 10 minutes. The start and stop times for the following processes were documented. The following parameters were collected: diastolic pressure, systolic pressure, mean blood pressure, heart rate, tail blood flow, and tail blood volume.

[4] = In vivo half-life / NCA pharmacokinetics of albumin binding conjugates in rat plasma; set-up: species or system rats; conditions: for half-life: iv, 1 mg/kg
Procedure: Compound 3 and Compound 4 were administered to rats at 1 mg/kg via IV. […] Therefore, the concentration of Compound 3′ is measured after treating plasma samples at a low pH.

[5] = Day 4, conjugates twice/week for two weeks (3, 4, 7, 8: 2.0 mg/kg; 5, 6: 0.025 mg/kg)
[6] = Day 8, conjugates twice/week for two weeks (3, 4, 7, 8: 2.0 mg/kg; 5, 6: 0.025 mg/kg)
[7] = Day 10, conjugates 2.0 mg/kg twice/week for two weeks
[8] = Day 14, conjugates 2.0 mg/kg twice/week for two weeks
[9] = Day 17, conjugates 2.0 mg/kg twice/week for two weeks
[10] = Day 21, conjugates 2.0 mg/kg twice/week for two weeks
[11] = in vivo, IV 1.0 mg/kg, plasma, measured as Compound 3′ after low pH treatment

In the case of `COc1ccc(C2=CN3C(=O)c4cc(OC)c(OCCCOc5cc6c(cc5OC)C(=O)N5C=C(c7ccc(NC(=O)[C@H](C)NC(=O)[C@@H](NC(=O)CCCCCN8C(=O)CC(SCCC(=O)NCCCC[C@H](NC(C)=O)C(=O)N9CCC[C@H]9C(=O)N(C)[C@@H](CCCNC(=N)N)C(=O)N[C@@H](CCCNC(=N)N)C(=O)N9CCC[C@H]9C(=O)N[C@@H](Cc9ccc(O)cc9)C(=O)N[C@H](C(=O)N[C@@H](CC(C)C)C(=O)O)C(C)(C)C)C8=O)C(C)C)cc7)C[C@H]5C=N6)cc4N=C[C@@H]3C2)cc1` (stereo partly drawn) [Compound 5], the IC50 (SW48 cells) is reported as 1.8 nM, the TGI % [1, 5] is reported as 21.3% and the TGI % [1, 6] is reported as 45.9%. It also gave an MTD (Once/week MTD) of 0.05 mg/kg.
With `COc1ccc(C2=CN3C(=O)c4cc(OC)c(OCCCOc5cc6c(cc5OC)C(=O)N5C=C(c7ccc(NC(=O)[C@H](C)NC(=O)[C@@H](NC(=O)CCCCCN8C(=O)CC(SCCC(=O)NCCCC[C@H](NC(C)=O)C(=O)N9CCC[C@H]9C(=O)N[C@@H](CC(C)C)C(=O)N9CCC[C@H]9C(=O)N(C)[C@@H](CCCNC(=N)N)C(=O)N[C@H](C(=O)N[C@@H](CCCNC(=N)N)C(=O)N[C@@H](Cc9ccc(O)cc9)C(=O)O)C(C)(C)C)C8=O)C(C)C)cc7)C[C@H]5C=N6)cc4N=C[C@@H]3C2)cc1` (stereo partly drawn) [Compound 6] the IC50 (SW48 cells) was 4 nM, the TGI % [1, 5] was 22.2% and the TGI % [1, 6] was 28.3%. For the same compound, the MTD (Once/week MTD) was 0.05 mg/kg.
For Transthyretin, the in vivo half-life [2] is given as “around 48 h”.
With `COc1cc2cc(c1Cl)N(C)C(=O)C[C@H](OC(=O)[C@H](C)N(C)C(=O)CCSC1CC(=O)N(CCCNC(=O)CNC(=O)[C@H](CC(C)C)NC(=O)[C@H](Cc3ccccc3)NC(=O)CNC(=O)CCC(=O)NCCCC[C@H](NC(C)=O)C(=O)N3CCC[C@H]3CN[C@@H](CC(C)C)C(=O)N3CCC[C@H]3C(=O)N(C)[C@@H](CCCNC(=N)N)C(=O)N[C@H](C(=O)N[C@@H](CCCNC(=N)N)C(=O)N[C@@H](Cc3ccc(O)cc3)C(=O)O)C(C)(C)C)C1=O)[C@]1(C)O[C@H]1[C@H](C)[C@@H]1C[C@@](O)(NC(=O)O1)[C@H](OC)/C=C/C=C(\C)C2` (stereo partly drawn) [Compound 7] the TGI % [1, 5] was −11%, the TGI % [1, 6] was −22.6% and the TGI % [1, 7] was −29.7%. For the same compound, the TGI % [1, 8] was −32%, the TGI % [1, 9] was −48.3% and the TGI % [1, 10] was −52.8%. For the same compound, the MTD (Once/week MTD) was greater than 8 mg/kg.
`CCc1c2c(nc3ccc(OC(=O)N4CCC(N5CCCCC5)CC4)cc13)-c1cc3c(c(=O)n1C2)COC(=O)[C@]3(O)CC` [Irinotecan, irinotecan, reference compound] gave a TGI % [1, 6] of 10%, a TGI % [1, 7] of 12.8% and a TGI % [1, 8] of 33%. It also gave a TGI % [1, 9] of 34.9%, a TGI % [1, 10] of 33.9% and an MTD (Once/week MTD) of 50 mg/kg.
With `COc1cc2cc(c1Cl)N(C)C(=O)C[C@H](OC(=O)[C@H](C)N(C)C(=O)CCSC1CC(=O)N(CCCNC(=O)CNC(=O)[C@H](CC(C)C)NC(=O)[C@H](Cc3ccccc3)NC(=O)CNC(=O)CCC(=O)NCCCC[C@H](NC(C)=O)C(=O)N3CCC[C@H]3C(=O)N(C)[C@@H](CCCNC(=N)N)C(=O)N[C@@H](CCCNC(=N)N)C(=O)N3CCC[C@H]3C(=O)N[C@@H](Cc3ccc(O)cc3)C(=O)N[C@H](C(=O)N[C@@H](CC(C)C)C(=O)O)C(C)(C)C)C1=O)[C@]1(C)O[C@H]1[C@H](C)[C@@H]1C[C@@](O)(NC(=O)O1)[C@H](OC)/C=C/C=C(\C)C2` (stereo partly drawn) [Compound 4] the “mean blood pressure change” value [3] was “significant drop in mean blood pressure”, the IC50 (SW48 cells) was 3.7 nM and the MTD (Once/week MTD) was greater than 8 mg/kg. The “degradation in rat plasma compared with albumin bound Compound 3” value ([4]; IV 1 mg/kg, FIG. 3) was “degraded faster”.
For `COc1cc2cc(c1Cl)N(C)C(=O)C[C@H](OC(=O)[C@H](C)N(C)C(=O)CCSC1CC(=O)N(CCCNC(=O)CNC(=O)[C@H](CC(C)C)NC(=O)[C@H](Cc3ccccc3)NC(=O)CNC(=O)CCC(=O)NCCCC[C@H](NC(=O)c3ccc(/C(C)=N/NC(=O)CCCCCN4C(=O)C=CC4=O)cc3)C(=O)N3CCC[C@H]3C(=O)N(C)[C@@H](CCCNC(=N)N)C(=O)N[C@@H](CCCNC(=N)N)C(=O)N3CCC[C@H]3C(=O)N[C@@H](Cc3ccc(O)cc3)C(=O)N[C@H](C(=O)N[C@@H](CC(C)C)C(=O)O)C(C)(C)C)C1=O)[C@]1(C)O[C@H]1[C@H](C)[C@@H]1C[C@@](O)(NC(=O)O1)[C@H](OC)/C=C/C=C(\C)C2` (stereo partly drawn) [Compound 3], the “mean blood pressure change” value [3] was “no significant drop in mean blood pressure”, the MTD (Once/week MTD) was 4 to 8 mg/kg and the “rat plasma half-life relative to Compound 4 (does not bind albumin)” value ([4]; IV 1 mg/kg) was 80 fold. It also gave an AUC [4, 11] of 33.7 µM·h, an AUC(0-inf) [4, 11] of 39.3 µM·h and a Cmax [4, 11] of 4.69 µM. The clearance [4, 11] was 0.16 mL/min/kg, the Vd ([4]; in vivo, IV 1.0 mg/kg, plasma, measured as Compound 3′ after low pH treatment, read-out: Vss) was 0.107 L/kg and the half-life ([4]; in vivo, IV 1.0 mg/kg, plasma, measured as Compound 3′ after low pH treatment of plasma samples, read-out: t½ (converted)) was 9.32 h. It also gave a half-life ([4]; in vivo, IV 1 mg/kg, read-out: rat plasma half-life (converted)) of 9.3 h.

From US20200009262A1, “TARGETED CONSTRUCTS AND FORMULATIONS THEREOF” (TARVEDA THERAPEUTICS, INC., priority 2016, published 2020)
